Measured values: patent US10760110B2, “Antibiotic testing and screening system” (priority 2017, dated 2020)
In brackets after ≈: the same amount, converted by molar mass. Read-outs that look alike come from different tables or passages of the source.

Experiments:
[1] = test system: K. pneumoniae NVT1001 ΔramRΔompK35/36 mutant and its revertants; experiment: Etest MIC, ΔramRΔompK35/36 mutant and its revertants (Table 7); format: cell-based; details: Klebsiella pneumoniae
Source text: The allelic-exchange method was used to restore the wild-type gene in the K. pneumoniae NVT1001 mutants with constructed chromosome-mediated resistance mechanisms, as described by Tsai et al.^19 Briefly, a DNA fragment of the entire wild-type gene sequence along with flanking regions was amplified from K. pneumoniae NVT1001 using PCR with specific primers. The resulting PCR fragment was digested and then cloned into pUT-KB. For homologous recombination, this plasmid was transformed into E. coli S17-1 λpir^23 via electroporation and mobilized into the K. pneumoniae NVT1001 mutant via conjugation. […] After incubation in 20 mL BHI broth for 6 hours at 37° C. in the absence of kanamycin, the fully grown cultures were spread onto LB agar plates supplemented with 10% sucrose. After the double crossover occurred, the sucrose-resistant and kanamycin-susceptible colonies were selected, and the restoration of the wild-type gene was confirmed via DNA sequencing.
(§1) The MICs of antibiotics were determined using the Etest (Biodisk AB, Sweden) according to the manufacturer's instructions. The MICs from the Etest, which fall between standard two-fold dilutions, were rounded up to the next highest two-fold value. The MICs of ceftazidime and cefotaxime against K. pneumoniae NVT1001 harbouring the pACYC177 plasmid with blaOXA-48 were further determined using a broth microdilution test according to the recommendations of the CLSI,^25 and the results were interpreted according to the breakpoints established by the CLSI in 2017.^25 Meanwhile, due to the lack of CLSI breakpoints in 2016 and 2017, the results for cephalothin were interpreted according to the breakpoints established by the CLSI in 2015,^26 and the results for moxifloxacin were interpreted according to the breakpoints established by the EUCAST in 2017.^27

[2] = test system: K. pneumoniae NVT1001 and its ΔompK35/36 and/or ΔramR mutants; experiment: Etest MIC, OmpK35/36 loss and AcrAB-TolC overexpression (ΔramR) strains (Table 6); format: cell-based, Klebsiella pneumoniae; details: Klebsiella pneumoniae
Description: as §1

[3] = ΔramRΔompK35/36::ompK35/36 revertant
[4] = ΔramRΔompK35/36::ompK35 revertant
[5] = ΔramRΔompK35/36::ompK36 revertant
[6] = ΔramRΔompK35/36::ramR revertant
[7] = ΔramRΔompK35/36::ramR::ompK35/36 revertant
[8] = ΔramRΔompK35/36::ramR::ompK35 revertant
[9] = ΔramRΔompK35/36::ramR::ompK36 revertant
[10] = ΔramRΔ35/36, ΔramRΔompK35/36 mutant

## O=C(N[C@H](CO)[C@H](O)c1ccc([N+](=O)[O-])cc1)C(Cl)Cl [Chloramphenicol]
[1]; [3]
  MIC: 64 µg/mL
[1]; [4]
  MIC: 128 µg/mL
[1]; [5]
  MIC: 64 µg/mL
[1]; [6]
  MIC: 8 µg/mL
[1]; [7]
  MIC: 4 µg/mL
[1]; [8]
  MIC: 4 µg/mL
[1]; [9]
  MIC: 8 µg/mL
[1]; ΔramRΔompK35/36 mutant
  MIC: 128 µg/mL
[2]; WT, NVT1001
  MIC: 8 µg/mL (≈ 24.8 µM)
[2]; Δ35, ΔompK35 mutant
  MIC: 8 µg/mL (≈ 24.8 µM)
[2]; Δ35/36, ΔompK35/36 mutant
  MIC: 8 µg/mL (≈ 24.8 µM)
[2]; Δ36, ΔompK36 mutant
  MIC: 8 µg/mL (≈ 24.8 µM)
[2]; ΔramR mutant
  MIC: 128 µg/mL (≈ 396 µM)
[2]; ΔramRΔ35, ΔramRΔompK35 mutant
  MIC: 128 µg/mL (≈ 396 µM)
[2]; [10]
  MIC: 128 µg/mL (≈ 396 µM)
[2]; ΔramRΔ36, ΔramRΔompK36 mutant
  MIC: 128 µg/mL (≈ 396 µM)

## C[C@@H]1O[C@@H]1P(=O)(O)O [Fosfomycin]
[1]; [3]
  MIC: 64 µg/mL
[1]; [4]
  MIC: 512 µg/mL
[1]; [5]
  MIC: 128 µg/mL
[1]; [6]
  MIC: 512 µg/mL
[1]; [7]
  MIC: 128 µg/mL
[1]; [8]
  MIC: 256 µg/mL
[1]; [9]
  MIC: 128 µg/mL
[1]; ΔramRΔompK35/36 mutant
  MIC: > 1020 µg/mL
[2]; WT, NVT1001, read-out: MIC
  MIC: 128 µg/mL (≈ 927 µM)
[2]; Δ35, ΔompK35 mutant
  MIC: 128 µg/mL (≈ 927 µM)
[2]; Δ35/36, ΔompK35/36 mutant
  MIC: 512 µg/mL (≈ 3710 µM)
[2]; Δ36, ΔompK36 mutant
  MIC: 256 µg/mL (≈ 1850 µM)
[2]; ΔramR mutant
  MIC: 64 µg/mL (≈ 464 µM)
[2]; ΔramRΔ35, ΔramRΔompK35 mutant
  MIC: 128 µg/mL (≈ 927 µM)
[2]; [10]
  MIC: > 1020 µg/mL
[2]; ΔramRΔ36, ΔramRΔompK36 mutant
  MIC: 512 µg/mL (≈ 3710 µM)

## NC[C@H]1O[C@H](O[C@H]2[C@H](O)[C@@H](O[C@H]3O[C@H](CO)[C@@H](O)[C@H](N)[C@H]3O)[C@H](N)C[C@@H]2N)[C@H](O)[C@@H](O)[C@@H]1O [Kanamycin]
[2]; WT, NVT1001, read-out: MIC
  MIC: 2 µg/mL (≈ 4.13 µM)
[2]; Δ35, ΔompK35 mutant
  MIC: 2 µg/mL (≈ 4.13 µM)
[2]; Δ35/36, ΔompK35/36 mutant
  MIC: 4 µg/mL (≈ 8.26 µM)
[2]; Δ36, ΔompK36 mutant
  MIC: 2 µg/mL (≈ 4.13 µM)
[2]; ΔramR mutant
  MIC: 2 µg/mL (≈ 4.13 µM)
[2]; ΔramRΔ35, ΔramRΔompK35 mutant
  MIC: 2 µg/mL (≈ 4.13 µM)
[2]; [10]
  MIC: 2 µg/mL (≈ 4.13 µM)
[2]; ΔramRΔ36, ΔramRΔompK36 mutant
  MIC: 2 µg/mL (≈ 4.13 µM)

## O=C1CN(/N=C/c2ccc([N+](=O)[O-])o2)C(=O)N1 [Nitrofurantoin]
[1]; [3]
  MIC: 256 µg/mL
[1]; [4]
  MIC: > 512 µg/mL
[1]; [5]
  MIC: 256 µg/mL
[1]; [6]
  MIC: > 512 µg/mL
[1]; [7]
  MIC: 64 µg/mL
[1]; [8]
  MIC: > 512 µg/mL
[1]; [9]
  MIC: 64 µg/mL
[1]; ΔramRΔompK35/36 mutant
  MIC: > 512 µg/mL
[2]; WT, NVT1001, read-out: MIC
  MIC: 64 µg/mL (≈ 269 µM)
[2]; Δ35, ΔompK35 mutant
  MIC: 64 µg/mL (≈ 269 µM)
[2]; Δ35/36, ΔompK35/36 mutant
  MIC: > 512 µg/mL
[2]; Δ36, ΔompK36 mutant
  MIC: > 512 µg/mL
[2]; ΔramR mutant
  MIC: 256 µg/mL (≈ 1070 µM)
[2]; ΔramRΔ35, ΔramRΔompK35 mutant
  MIC: 256 µg/mL (≈ 1070 µM)
[2]; [10]
  MIC: > 512 µg/mL
[2]; ΔramRΔ36, ΔramRΔompK36 mutant
  MIC: > 512 µg/mL
